Test results reported in patent publication US20230340498A1, “COMPOSITIONS AND METHODS FOR INDUCIBLE ALTERNATIVE SPLICING REGULATION OF GENE EXPRESSION” (The Children's Hospital of Philadelphia, priority 2020, published 2023).

Tests used:
Type in all cases: cell-based, Human
HEK293 cells [1] = assay: Differential gene expression analysis (DESeq2) of LMI070 vs DMSO treated HEK293 cells
Experimental: Differential gene expression analysis was performed using DESeq2 to compare samples from the LMI070 and DMSO conditions (Love et al., 2014). To visualize the abundance of meaningfully differentially expressed genes, a volcano plot was generated with a .05 Benjamini-Hochberg adjusted p-value threshold and a 0.1 log fold change threshold.
The pseudoexons identified in LMI070 treated samples share a strong 3′ AGAGUA motif consistent with the previously identified U1 RNA binding site targeted by LMI070 (FIG. 2C) (Cheung et al., 2018). To experimentally validate the identified LMI070 induced splicing events, primer pairs binding the flanking exons of the top 5 candidate genes (FIGS. 2A and 2F-2J) were generated. […] The impact of LMI070 treatment on global gene expression was evaluated by assessing differential expression analysis.

SF3B3-on switch = assay: Candidate minigene (SF3B3, BENC1, C12orf4, PDXDC2) switch-on luciferase assay in HEK293 cells
Experimental: (§1) Cell culture, transfection, and LMI070/RG7800 treatment. Human embryonic kidney (HEK293) cells (obtained from CHOP Research Vector Core stock) were maintained in DMEM media containing 10% Fetal Bovine Serum (FBS), 1% L-Glutamine and 1% penicillin/streptomycin at 37° C. with 5% CO2. Cells were cultured in 24 well plates and transfected at 80-90% confluence using Lipofectamine 2000 transfection reagent, according to the manufacturer’s protocol. For all experiments, 4 hours after plasmid transfection, cells were treated with LMI070 (MedChemExpress, HY-19620, suspended in DMSO) or RG7800 (MedChemExpress, HY-101792A, suspended in H2O) at the indicated concentrations. Cells were tested for mycoplasma by Research Vector Core. None of the cells used in the study were listed in ICLAC database of commonly misidentified cell lines.
In vitro luciferase assays. HEK293 cells were cultured in DMEM (10% FBS (v/v), 1% Pen/ Strep (v/v), and 1% L-glutamine (v/v) in a 24-well plate. At 70%-80% confluence, cells were co-transfected with the Xon.Firefly luciferase cassettes (0.3 µg/well) and a SV40p-Renilla luciferase cassette as transfection control (0.02 µg/well). Four hours after transfections cells were treated either with LMI070 or RG7800 at indicated concentrations. At 24 h after transfection, cells were rinsed with ice-cold PBS and Renilla and Firefly luciferase activities were assessed using the Dual-Luciferase Reporter Assay System (Promega) according to the manufacturer’s instructions. Luminescent readouts were obtained with a Monolight 3010 luminometer (Pharmigen). Relative light units (RLUs) were calculated as the quotient of […] RLUs and results expressed relative to mock treated control cells.
Next, a series of switch-on cassettes were developed from the top 4 LMI070-responsive exons found in the RNA-Seq dataset. […] HEK293 cells were transfected with the candidate cassettes, treated with LMI070, and luciferase activity or eGFP expression determined 24 h later. […]

HEK293 cells [2] = assay: PCR validation of LMI070-induced novel exons with primers binding the flanking exons; settings: top 5 candidate genes; cDNA from HEK293 cells treated with LMI070 vs DMSO
Experimental: RNA extraction, RT-PCR, and Splicing assays. Total RNA was extracted using Trizol (Life Technologies) according to the manufacturer’s protocol, with the exception of 1 µL Glycoblue (Life Technologies) in addition to the aqueous phase on the isopropanol precipitation step and a single wash with cold 70% ethanol. To determine HTT expression levels after transfection, RNA samples were quantified by spectrophotometry and subsequently cDNAs generated from […] of total RNA with random hexamers (TaqMan RT reagents, Applied Biosystems). […] Relative HTT gene expression was determined using the ddCt method. […] Splicing was determined by PCR using the Phusion High-Fidelity polymerase (Thermofisher) and PCR products separated on a 2.5% agarose gel pre-stained with EtBr and spliced-in and spliced-out band densitometry performed using with the ChemiDoc Imaging System (BioRad) and Image Lab analysis software. Splicing induction from mouse tissues was determined using two custom TaqMan assays designed to determine total or LMI070-spliced in mRNA transcripts. The percentage of induction was determined by dividing the average Ct novel exon and average Ct Total, relative to control animals injected with AAV virus plus vehicle. […]

SF3B3-on-eGFP cassette = SF3B3-on-eGFP cassette expression in HEK293 cells; settings: LMI070 vs DMSO
Experimental: as §1
Next, a series of switch-on cassettes were developed from the top 4 LMI070-responsive exons found in the RNA-Seq dataset. […] HEK293 cells were transfected with the candidate cassettes, treated with LMI070, and luciferase activity or eGFP expression determined 24 h later. […] Similarly, eGFP expression was only detected in cells transfected with the SF3B3-on-eGFP cassette in response to LMI070 treatment (FIG. 3D).

[3] = p < 0.05, Benjamin-Hochberg correction, LMI070 vs DMSO

`CC1(C)CC(Oc2ccc(-c3ccc(-c4cn[nH]c4)cc3O)nn2)CC(C)(C)N1` [LMI070, 5-(1H-Pyrazol-4-yl)-2-(6-((2,2,6,6-tetramethylpiperidin-4-yl)oxy)pyridazin-3-yl)phenol] was tested, and the “downregulated genes after filtering out low fold-change values” (HEK293 cells [1]; filtered <0.1 fold) was 9, the “upregulated genes after filtering out low fold-change values” (HEK293 cells [1]; filtered <0.1 fold) was 5 and the “downregulated genes passing the threshold for significance” value (HEK293 cells [1]; [3]) was 24. The “upregulated genes passing the threshold for significance” value (HEK293 cells [1]; [3]) was 6, the “luciferase expression of each candidate cassette in response to LMI070” value (SF3B3-on switch; SF3B3, BENC1, C12orf4, PDXDC2 cassettes, 24 h) was “Increased luciferase expression” and the “luciferase induction of the SF3B3-on switch” value (SF3B3-on switch; in response to LMI070, relative to DMSO, 24 h) was “more than 100 fold”. The “fold-change in luciferase activity in response to LMI070, original intron” value (SF3B3-on switch; original SF3B3-on construct compared with alternate intron cassettes) was > 200 fold, the “amplification of the novel exons by PCR” value (HEK293 cells [2]) was “Robust amplification” and the “eGFP expression from SF3B3-on-eGFP cassette” value (SF3B3-on-eGFP cassette) was “only detected”.
